# Measured values from patent US11014896B2, “TRPA1 and TRPV4 inhibitors and methods of using the same for organ-specific inflammation and itch” (Duke University, priority 2014, dated 2021).
# Entries after “also recorded” stand apart in the source; their conditions may differ. Where a SMILES comes first, the peptide text is derived from it. [ ]: non-standard residue; d: D form.
# What was measured:
# [1] = system: primary mouse keratinocytes (1° MK); assay: UVB-evoked Ca++ signaling in primary mouse keratinocytes (fluo-4 imaging); type: cell-based; conditions: for ET1-augmented, UVB-induced Ca++ transients: UVB and ET1 co-exposure; for UVB-evoked Ca++ signaling (ΔF/F0): GSK205 20 μM
# Description: Ca++ imaging of 1° MK was conducted following routine procedures. For UVB stimulation, a customized device was built. The system comprised a printed circuit board for electrical interconnects and mechanical support and an ultraviolet light-emitting diode (UV LED).
# The operating wavelength was 295 nm (FIG. 2A), with a full-width half-max of 12 nm. The optical power was 500 mW. The focal point was aimed at the plane of the upper surface of the quartz coverslip, which was used to minimize UV absorption along the optical path towards the cells (FIG. 2A-FIG. 2C). The optical intensity at the focal point was estimated to be 150 mW/mm^2.
# Ca++ imaging of mouse 1° MK in response to chemical activation of TRPV4 was conducted after loading with 2 μM fura2-AM, following a ratiometric Ca2+ imaging protocol with 340/380 nm […] for dual excitation. Ratios of emissions were acquired at 0.5 Hz. ΔR/R0 was determined as the fraction of the increase of a given ratio over baseline ratio, divided by baseline ratio. For stimulation of cells with UVB, where fura-2 was not suitable because of the proximity of stimulation with 340/380 nm and 295 nm, 2 μM fluo4-AM was used instead. Ca++ imaging was carried out at 488 nm excitation, acquisition of emissions at 0.5 Hz, expressed as ΔF/F0. In the custom-built UV optical system, UV LEDs were capped with a ball lens, a transparent optical window in the shape of a hemispherical lens (FIG. 2B). The LED output optical beam focused at 15-20 mm from the lens, with a spot diameter of approximately 1.5-2.0 mm (FIG. 2C). […] The thermal equilibration stage was set for physiological temperature.
# ET1 [2] = assay: ET1 secretion by non-stimulated 1° MK (ELISA); type: cell-based, mouse
# ET1 [3] = assay: ET1 expression by UVB-exposed 1° MK (immunocytochemistry); type: cell-based, mouse; conditions: cells preincubated with inhibitor
# Description: 1° MK were exposed to UVB using the UV optical system (295 nm LED). 24 hours later the cells were fixed and fluorescently immunolabeled for ET1. Digital images were captured and subjected to morphometry.
# Mouse keratinocytes were cultured on collagen coated quartz coverslips and then stimulated from the bottom using the previously mentioned UV optical system using the 295 nm LED. 24 hours later the cells were fixed in 4% formaldehyde in PBS for 20 minutes, permeabilized with 0.1% Triton X-100 in PBS for 10 minutes, washed, then blocked in 10% normal goat serum in PBS for 45 minutes. Coverslips were incubated overnight with primary antibody mouse anti-ET1 (1:200; Abcam), washed three times in PBS and incubated with secondary antibody for 2 hours at 25° C. Coverslips were washed three times in PBS, once with double-distilled H2O. Digital images were captured using a 40× immersion lens on the BX61 Olympus upright microscope. Morphometric analysis was conducted using ImageJ freeware with tailored regions-of-interest.
# human TRPV2 = target: T1, human TRPV2 (Homo sapiens, UniProt Q9Y5S1); assay: Ca2+ signal in N2a cells transfected with human TRPV2; type: cell-based; conditions: stimulation with hypotonicity (260 mosmol/L)
# T1 construct: expressed in transfected cells; host or cells: N2a cells
# T1 sequence (Q9Y5S1 1-764): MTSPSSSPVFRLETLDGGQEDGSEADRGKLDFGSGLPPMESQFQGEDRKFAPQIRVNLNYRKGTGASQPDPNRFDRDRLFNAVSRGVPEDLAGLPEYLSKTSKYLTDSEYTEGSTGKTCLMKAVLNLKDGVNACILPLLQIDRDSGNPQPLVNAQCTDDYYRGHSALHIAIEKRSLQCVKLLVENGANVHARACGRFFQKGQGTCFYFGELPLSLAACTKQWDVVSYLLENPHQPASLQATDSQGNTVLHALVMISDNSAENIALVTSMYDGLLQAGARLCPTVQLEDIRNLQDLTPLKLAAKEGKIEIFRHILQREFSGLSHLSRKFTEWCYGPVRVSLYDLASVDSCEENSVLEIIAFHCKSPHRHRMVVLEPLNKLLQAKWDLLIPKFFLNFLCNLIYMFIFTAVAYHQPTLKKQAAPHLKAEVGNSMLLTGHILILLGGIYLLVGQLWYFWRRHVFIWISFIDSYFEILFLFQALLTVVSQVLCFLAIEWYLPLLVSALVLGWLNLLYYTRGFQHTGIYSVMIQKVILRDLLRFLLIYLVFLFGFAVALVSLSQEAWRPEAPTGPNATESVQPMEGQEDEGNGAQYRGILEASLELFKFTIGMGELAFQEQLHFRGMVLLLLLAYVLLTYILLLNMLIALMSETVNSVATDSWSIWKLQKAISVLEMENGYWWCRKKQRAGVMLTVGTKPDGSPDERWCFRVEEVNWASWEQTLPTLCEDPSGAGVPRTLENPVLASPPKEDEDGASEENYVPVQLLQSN
# Description: (§1) Compounds were tested for their effect on TRPV1, TRPV2, and TRPV3. Methods were similar to those described in Example 15. Briefly, N2a cells were transfected with human TRPV1, TRPV2, or TRPV3. eGFP-transfection was used as control. For specific stimulation of TRPV1, 5 μM capsaicin was used. For stimulation of TRPV2, hypotonicity (260 mosmol/L) was used, based on previous reports of TRPV2 being osmotically responsive. N2a cells were not responsive to hypotonicity, and neither were control-transfected cells. For TRPV3-expressing cells, camphor (20% of a commercially available stock solution) was used. […] Stimulation and control protocols were applied as for TRPA1-expressing N2a cells as detailed above in Example 15.
# human TRPA1 = target: T2, human TRPA1 (Homo sapiens, UniProt O75762); assay: Ca2+ transient in N2a cells transfected with human TRPA1; type: cell-based; conditions: 5 μM compound
# T2 construct: expressed in transfected cells; host or cells: N2a cells, pcDNA3.1 plasmid, co-transfected with an eGFP plasmid
# Description: Compounds were tested for their effect on TRPA1. N2a permanent cells were transfected with human TRPA1 cDNA, using a pcDNA3.1 expression plasmid. They were co-transfected with eGFP-expressing plasmid, or, for control, with eGFP plasmid only.
# TRPV4 = TRPV4 (Homo sapiens, UniProt Q9HBA0); assay: TRPV4-mediated calcium influx in N2a cells with targeted expression of human TRPV4; type: cell-based; parameters: expressed in transfected cells; host or cells: N2a cells; conditions: 2.5 μM inhibitor, pre-incubation 10 min; TRPV4 activated with 10 nM GSK101
# Description: Compounds (GSK205, 16-12, 16-13, 16-14, 16-18, 16-8, and 16-8/18hy) were tested for their effect on TRPV4-mediated calcium influx in N2a cultured cells with targeted expression of human TRPV4. Ca2+ imaging was performed according to Li et al. (Environ. Health Perspect. 2011, 119, 784-93) and Moore et al. (Proc. Natl. Acad. Sci. U.S.A. 2013, 110, E3225-E3234). Briefly, Ca2+ imaging of primary mouse epidermal keratinocytes (1° MK) in response to chemical activation of TRPV4 was conducted after loading with 2 μM fura2-AM, following a ratiometric Ca2+-imaging protocol with 340/380 nm blue light for dual excitation. Ratios of emissions were acquired at 0.5 Hz. ΔR/R0 was determined as the fraction of the increase of a given ratio over baseline ratio, divided by baseline ratio. For stimulation of cells with UVB, where fura-2 was not suitable because of the proximity of stimulation with 340/380 nm vs. 295 nm, 2 μM fluo4-AM was used instead. Ca2+ imaging was carried out at 488 nm excitation, acquisition of emissions at 0.5 Hz, expressed as ΔF/F0. TRPV4 was activated with 10 nM GSK101, a specific activator, which had no effect on RFP-transfected cells. Each of the […] compounds were added to a concentration of 2.5 μM, and its effect was observed.
# human TRPV3 = target: T3, human TRPV3 (Homo sapiens, UniProt Q8NET8); assay: Ca2+ signal in N2a cells transfected with human TRPV3; type: cell-based; conditions: stimulation with camphor
# T3 construct: expressed in transfected cells; host or cells: N2a cells
# T3 sequence (Q8NET8 1-790): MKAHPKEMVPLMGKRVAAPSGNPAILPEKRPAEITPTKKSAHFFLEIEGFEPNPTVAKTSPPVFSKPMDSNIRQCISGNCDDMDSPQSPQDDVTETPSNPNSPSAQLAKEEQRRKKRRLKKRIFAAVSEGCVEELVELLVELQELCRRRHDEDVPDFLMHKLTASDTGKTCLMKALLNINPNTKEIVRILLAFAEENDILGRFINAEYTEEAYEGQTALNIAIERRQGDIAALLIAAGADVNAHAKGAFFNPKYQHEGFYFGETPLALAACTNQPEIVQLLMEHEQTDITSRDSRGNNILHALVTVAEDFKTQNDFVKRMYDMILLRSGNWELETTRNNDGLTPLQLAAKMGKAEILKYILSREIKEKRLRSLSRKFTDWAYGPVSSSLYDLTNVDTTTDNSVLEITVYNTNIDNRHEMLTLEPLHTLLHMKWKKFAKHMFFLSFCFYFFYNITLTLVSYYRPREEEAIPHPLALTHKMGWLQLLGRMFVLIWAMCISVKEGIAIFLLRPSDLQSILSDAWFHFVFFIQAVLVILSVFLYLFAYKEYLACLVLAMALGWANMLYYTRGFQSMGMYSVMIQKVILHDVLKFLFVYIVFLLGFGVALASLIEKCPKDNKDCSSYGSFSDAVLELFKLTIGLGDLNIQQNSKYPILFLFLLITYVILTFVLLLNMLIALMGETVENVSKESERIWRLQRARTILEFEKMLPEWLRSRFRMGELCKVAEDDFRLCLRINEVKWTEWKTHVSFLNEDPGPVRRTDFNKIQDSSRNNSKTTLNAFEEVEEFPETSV
# Description: as §1
# human TRPV1 = target: T4, human TRPV1 (Homo sapiens, UniProt Q8NER1); assay: Ca2+ signal in N2a cells transfected with human TRPV1; type: cell-based; conditions: stimulation with 5 μM capsaicin
# T4 construct: expressed in transfected cells; host or cells: N2a cells
# Description: as §1
# [4] = Formalin-evoked nocifensive (rubbing) behavior, whisker-pad injection, in vivo pain model in mice; parameters: species or system mouse
# Description: Compounds were tested for their effect in reducing pain using an in vivo pain model in mice. For mouse formalin-evoked irritant behavior measurements, mice were well-fed, well-rested, and tested at the same time of day, at the same time-point of their circadian rhythm. They were allowed to acclimate to a plexiglas chamber for at least 30 min before testing, and received 10 μL subcutaneous injection of 4% of formalin (diluted from an aqueous solution of commercial 37% formaldehyde with normal saline (NS)) through a 30-gauge needle into the right whiskerpad, as further detailed in Luccarini et al. (J. Pain, 2006, 7, 908-914). Normal saline was used as control injection. After injection, mice were immediately placed back into the chamber and the rubbing behavior was recorded by a private consumer-type video-camera for a 45 min observation period. The recording time was divided into 9 blocks of 5 min, and a nociceptive score was determined per block by measuring the time that the animals spent rubbing the injected area predominantly with the ipsilateral fore-paw and rarely with hind-paw. This rubbing behavior with fore-paw is evoked by pain, which is distinct from itch behavior. Behavioral analysis was conducted by observers blinded to treatment.
# To investigate the effects of the specific compounds GSK205, 16-8, and 16-8/18hy on formalin-induced nociceptive behavior, mice received a single subcutaneous injection of the compounds into the whiskerpad (10 μL, dissolved in 4% DMSO) 15 min before formalin injection. Control animals received the same volume of NS, 4% DMSO.
# Sequence of TRPV4 (Q9HBA0 whole entry): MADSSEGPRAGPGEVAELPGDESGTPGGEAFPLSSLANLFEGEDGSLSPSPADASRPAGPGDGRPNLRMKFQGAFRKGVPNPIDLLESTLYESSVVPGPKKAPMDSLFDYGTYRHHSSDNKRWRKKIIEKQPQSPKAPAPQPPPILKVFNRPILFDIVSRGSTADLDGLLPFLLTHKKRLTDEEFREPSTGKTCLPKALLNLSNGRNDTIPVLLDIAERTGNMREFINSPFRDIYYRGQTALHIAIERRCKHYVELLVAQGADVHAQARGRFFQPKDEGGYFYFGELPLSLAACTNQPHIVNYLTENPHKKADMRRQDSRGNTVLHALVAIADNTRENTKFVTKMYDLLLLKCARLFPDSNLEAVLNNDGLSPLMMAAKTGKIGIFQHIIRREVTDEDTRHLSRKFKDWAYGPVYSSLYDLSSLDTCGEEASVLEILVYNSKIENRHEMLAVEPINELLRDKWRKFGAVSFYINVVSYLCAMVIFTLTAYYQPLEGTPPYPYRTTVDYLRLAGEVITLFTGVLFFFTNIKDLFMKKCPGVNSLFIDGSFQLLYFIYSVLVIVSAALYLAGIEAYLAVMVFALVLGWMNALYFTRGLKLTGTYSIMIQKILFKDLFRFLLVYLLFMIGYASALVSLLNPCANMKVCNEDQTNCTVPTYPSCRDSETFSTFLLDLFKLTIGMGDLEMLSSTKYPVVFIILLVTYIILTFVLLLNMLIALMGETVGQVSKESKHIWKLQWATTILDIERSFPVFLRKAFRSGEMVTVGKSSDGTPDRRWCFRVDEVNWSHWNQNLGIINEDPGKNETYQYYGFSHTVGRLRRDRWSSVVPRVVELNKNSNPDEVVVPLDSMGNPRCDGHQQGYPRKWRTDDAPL
# T4 sequence (Q8NER1 whole entry): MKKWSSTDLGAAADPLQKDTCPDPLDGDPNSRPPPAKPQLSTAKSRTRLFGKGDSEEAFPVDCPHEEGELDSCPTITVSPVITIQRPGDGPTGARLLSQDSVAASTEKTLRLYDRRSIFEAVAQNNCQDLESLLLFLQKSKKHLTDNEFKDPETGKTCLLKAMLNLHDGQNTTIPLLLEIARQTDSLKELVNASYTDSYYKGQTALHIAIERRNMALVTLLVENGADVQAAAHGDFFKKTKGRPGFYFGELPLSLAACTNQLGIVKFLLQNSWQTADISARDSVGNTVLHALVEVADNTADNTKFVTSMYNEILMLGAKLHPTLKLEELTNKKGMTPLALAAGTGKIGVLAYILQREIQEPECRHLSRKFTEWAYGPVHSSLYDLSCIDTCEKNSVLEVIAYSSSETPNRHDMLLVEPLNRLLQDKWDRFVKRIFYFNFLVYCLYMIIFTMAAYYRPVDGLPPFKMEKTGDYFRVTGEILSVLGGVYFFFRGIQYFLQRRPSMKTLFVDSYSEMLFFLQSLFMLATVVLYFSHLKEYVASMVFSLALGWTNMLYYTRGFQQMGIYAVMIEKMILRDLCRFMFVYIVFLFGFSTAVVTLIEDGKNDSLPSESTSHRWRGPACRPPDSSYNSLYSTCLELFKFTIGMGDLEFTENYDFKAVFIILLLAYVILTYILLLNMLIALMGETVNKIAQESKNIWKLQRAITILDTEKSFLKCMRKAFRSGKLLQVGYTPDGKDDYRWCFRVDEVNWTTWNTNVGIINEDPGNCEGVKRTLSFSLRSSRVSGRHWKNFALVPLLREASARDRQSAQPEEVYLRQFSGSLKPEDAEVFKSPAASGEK
# T2 sequence (O75762 whole entry): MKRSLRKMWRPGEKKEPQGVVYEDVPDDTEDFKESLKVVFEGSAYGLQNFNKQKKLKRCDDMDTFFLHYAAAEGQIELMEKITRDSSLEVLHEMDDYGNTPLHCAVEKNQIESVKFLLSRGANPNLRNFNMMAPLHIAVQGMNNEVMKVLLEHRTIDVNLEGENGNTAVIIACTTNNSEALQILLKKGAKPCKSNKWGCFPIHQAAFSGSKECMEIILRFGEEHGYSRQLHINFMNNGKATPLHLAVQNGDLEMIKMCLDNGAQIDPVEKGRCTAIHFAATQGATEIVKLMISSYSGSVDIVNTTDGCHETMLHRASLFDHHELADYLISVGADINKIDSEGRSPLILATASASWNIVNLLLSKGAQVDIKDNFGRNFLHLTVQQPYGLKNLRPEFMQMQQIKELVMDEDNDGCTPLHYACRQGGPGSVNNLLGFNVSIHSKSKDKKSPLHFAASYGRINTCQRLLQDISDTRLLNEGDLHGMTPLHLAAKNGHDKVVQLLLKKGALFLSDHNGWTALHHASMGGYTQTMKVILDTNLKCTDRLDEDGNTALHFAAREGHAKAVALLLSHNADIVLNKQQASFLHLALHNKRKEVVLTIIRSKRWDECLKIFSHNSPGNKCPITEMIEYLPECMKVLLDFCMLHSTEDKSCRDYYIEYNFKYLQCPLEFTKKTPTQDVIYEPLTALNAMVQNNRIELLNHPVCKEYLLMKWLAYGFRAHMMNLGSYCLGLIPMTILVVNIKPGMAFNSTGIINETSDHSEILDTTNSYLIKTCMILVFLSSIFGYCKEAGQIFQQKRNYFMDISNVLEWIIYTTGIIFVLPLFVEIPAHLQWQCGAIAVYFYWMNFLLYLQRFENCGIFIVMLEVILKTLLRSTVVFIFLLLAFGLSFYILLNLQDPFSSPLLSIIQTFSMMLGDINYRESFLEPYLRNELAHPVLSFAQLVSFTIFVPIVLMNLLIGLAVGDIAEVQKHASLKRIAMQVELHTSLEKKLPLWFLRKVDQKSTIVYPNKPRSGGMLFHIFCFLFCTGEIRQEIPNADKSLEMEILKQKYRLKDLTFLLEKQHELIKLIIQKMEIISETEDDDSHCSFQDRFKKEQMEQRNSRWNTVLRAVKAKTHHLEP
compound,measurement,setting,value
CCCC[C@@H](NC(=O)[C@@H](Cc1cn(C(=O)OC)c2ccccc12)NC(=O)[C@H](CC(C)(C)C)NC(=O)N1[C@H](C)CCC[C@@H]1C)C(=O)O [BQ788],"ET1-augmented, UVB-induced Ca++ transients",[1],attenuated
O=C(O)C(Cc1ccc2c(c1)oc1ccccc12)NCP(=O)(O)O (centres unmarked) [CGS35066],ET1 secretion into supernatant (relative ET1 concentration),ET1 [2],down-regulation
same,UVB-evoked Ca++ signaling (ΔF/F0),[1],significantly diminished; also recorded: significant attenuation
same,ET1 immunoreactivity,ET1 [3],significant down-regulation
COc1ccc2c(c1)CC[C@@H]1[C@@H]2CC[C@]2(C)[C@@H](NCCCCCCN3C(=O)C=CC3=O)CC[C@@H]12 [Compound U73122],ET1 secretion into supernatant (relative ET1 concentration),ET1 [2],down-regulation
same,UVB-evoked Ca++ signaling (ΔF/F0),[1],virtually eliminated; also recorded: strongly reduced
same,ET1 immunoreactivity,ET1 [3],dampened ET1 expression; also recorded: significant down-regulation
CCN(CCc1ccc(Nc2nc(-c3ccccc3)cs2)cc1)Cc1ccccc1 [Compound 16-8/18hy],Ca2+ transience on TRPV2 stimulation,human TRPV2,not affected
same,inhibitory activity against human TRPA1,human TRPA1,inhibitory activity
same,inhibition of TRPV4-mediated calcium influx (peak calcium concentration in the cells),TRPV4,did not show enhanced inhibition over 16-8
same,Ca2+ transience on TRPV3 stimulation,human TRPV3,not affected
same,Ca2+ transience on TRPV1 stimulation,human TRPV1,not affected
same,formalin-induced nocifensive behavior at the 45-min time-point,"[4]; 0.5 mM/10 μL, 45-min time-point",reversal to control levels
same,"formalin-induced nocifensive behavior, time course","[4]; 0.5 mM/10 μL, FIG. 21D",significantly attenuated nocifensive behavior
same,"formalin-induced nocifensive behavior, quantitation, in particular second phase",[4]; compounds pre-injected at 0.5 mM/10 μL into whiskerpad 15 min before 4% formalin,significant attenuation of nocifensive behavior
CC(C)C[C@@H]1NC(=O)[C@@H](C(C)C)NC(=O)[C@@H]2CCCN2C(=O)[C@@H](CC(=O)O)NC(=O)[C@@H](Cc2c[nH]c3ccccc23)NC1=O [BQ123] (cyclo(L[dW][dD]P[dV])),"ET1-augmented, UVB-induced Ca++ transients",[1],attenuated
CCN(CCc1ccc(Nc2nc(-c3cccnc3)cs2)cc1)Cc1ccccc1 [Compound 16-18],inhibition of TRPV4-mediated calcium influx (peak calcium concentration in the cells),TRPV4,most potent
CC(C)NCCN(C(C)C)S(=O)(=O)c1ccc(Cl)cc1Cl [RN1734],ET1 secretion into supernatant (relative ET1 concentration),ET1 [2],significant down-regulation
same,ET1 immunoreactivity,ET1 [3],diminished; also recorded: significant down-regulation
"C=C(C)CCO[P@@](=O)(O)OP(=O)(O)O [IPP, isopentenyl pyrophosphate]",UVB-evoked Ca++ signaling (ΔF/F0),[1],no effect; also recorded: not inhibited
